This note sets out measurements from US7605265B2, “Heterodimers and methods of using them” (priority 2007, dated 2009).

Broadly, the IC50 is the concentration that gives 50% inhibition. A high value points to lower potency.

Assay [1] has as its system scopolamine-induced memory impaired rats. Description: Morris water maze, scopolamine-induced memory impairment. The class given is in vivo, rat. The settings on record: for spatial bias: scopolamine 0.1 mg/kg; for spatial bias (% of total distance swum in the training quadrant during spatial probe trial): memory-impaired rats, FIG. 4d-4f; for escape latency: 4 days. The procedure: The Morris water maze consists of a water pool with a hidden, submerged escape platform. The rats must learn, over a period of consecutive days, the location of the platform using either contextual or local cues. The time taken to locate the hidden platform (escape latency) is a measure of the animal's cognitive abilities.
Scopolamine (0.1 mg/kg) was first i.p. administered to young adult rats to impair their memories. Scopolamine-induced memory impaired rats were then orally administered one of three different doses of compound B (0.025, 0.050, or 0.100 mg/kg) and subjected to the Morris water maze over a period of 4 days. On each day, the time taken for the rats to detect the hidden platform in the water maze was measured, in seconds.
Scopolamine (0.1 mg/kg) was first i.p. administered to young adult rats to impair their memories. Scopolamine-induced memory impaired rats were then orally administered one of three different doses of compound C (0.1, 0.2, or 0.4 mg/kg) and subjected to the Morris water maze over a period of 4 days. On each day, the time taken for the rats to detect the hidden platform in the water maze was measured, in seconds.
Scopolamine (0.1 mg/kg) was first i.p. administered to young adult rats to impair their memories. Scopolamine-induced memory impaired rats were then orally administered one of three different doses of compound A (0.1, 0.2, or 0.4 mg/kg) and subjected to the Morris water maze over a period of 4 days. On each day, the time taken for the rats to detect the hidden platform in the water maze was measured, in seconds.
A spatial bias (% of total distance swum in the training quadrant during spatial probe trial) for the region of the apparatus where the platform was positioned during training was also measured for compounds B and C.
The spatial bias for the region of the testing apparatus where the hidden platform was positioned during training was measured. […] Tacrine (THA) was included for comparison purposes.

Assay [2] concerns the target T1, acetylcholinesterase (AChE) (Rattus norvegicus, UniProt P37136).
T1 construct: from tissue; host or cells: rat brain cortex
T1 sequence (P37136 32-614): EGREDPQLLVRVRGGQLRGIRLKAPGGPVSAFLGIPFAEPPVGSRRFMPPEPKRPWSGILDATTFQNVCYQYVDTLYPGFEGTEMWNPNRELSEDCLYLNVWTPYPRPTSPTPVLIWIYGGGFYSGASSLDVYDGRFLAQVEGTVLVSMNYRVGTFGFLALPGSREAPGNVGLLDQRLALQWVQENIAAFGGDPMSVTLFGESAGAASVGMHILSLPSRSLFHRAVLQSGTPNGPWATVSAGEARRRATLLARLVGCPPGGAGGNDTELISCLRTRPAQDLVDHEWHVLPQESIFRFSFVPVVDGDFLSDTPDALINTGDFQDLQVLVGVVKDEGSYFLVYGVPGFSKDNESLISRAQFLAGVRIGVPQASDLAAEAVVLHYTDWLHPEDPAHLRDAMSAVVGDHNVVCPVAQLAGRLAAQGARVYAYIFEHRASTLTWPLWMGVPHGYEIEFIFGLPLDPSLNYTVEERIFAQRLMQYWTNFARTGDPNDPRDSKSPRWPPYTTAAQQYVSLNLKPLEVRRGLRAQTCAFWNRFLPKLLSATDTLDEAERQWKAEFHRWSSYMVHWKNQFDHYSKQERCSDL
In words: In vitro inhibition of AChE (cholinesterase assay, Ellman method). The following applies: for times more potent than bis(7)-tacrine / times more potent than tacrine: AChE inhibition; for Selectivity AchE*: IC50 (BChE)/IC50 (AChE); for IC50: enzyme prepared from rat cortex. The format is biochemical. The protocol: The in vitro inhibition of the enzymes acetylcholinesterase (AChE) and butyrylcholinesterase (BChE) were assessed. BChE, like AChE, breaks down acetylcholine (ACh) but is found in plasma and other organs such as the liver, skin and gastrointestinal tract.
The enzymes, AChE and BChE, used in the inhibition studies were prepared from the cortex and serum of decapitated rats, respectively.

Assay [3] addresses T2, butyrylcholinesterase (BChE) (Rattus norvegicus, UniProt Q9JKC1).
T2 construct: from tissue; host or cells: rat serum
In words: biochemical.

The target of another assay is T3, NMDA receptor (Rattus norvegicus, UniProt P35439).
T3 construct: Hippocampal neurons from embryonic day 18 rats were isolated, trypsinized, plated onto 35-mm plates; endogenous in cells; host or cells: primary hippocampal neurons from embryonic day 18 rats, DIV10-14
In words: Whole cell patch clamp, NMDA-induced current in hippocampal neurons. The class given is cell-based. The following applies: DIV10-14 rat hippocampal neurons, NMDA 50 μM, compound 10 μg/mL; FIG. 1. The protocol: The NMDA receptor is a gated ion channel, which allows inflow of current during a nerve impulse. Antagonists to the receptor would prevent the inflow of current. Memantine, a known NMDA antagonist was used as the positive control.
Hippocampal neurons from embryonic day 18 rats were isolated, trypsinized, plated onto 35-mm plates at a density of 3×10^4 cells/plate and cultured in Neurobasal medium (NB) supplemented with B27 nutrient. DIV10-14 rat hippocampal neurons were treated with NMDA (50 μM) in the absence or presence of the novel compounds (Cpd A, B and C) (10 μg/mL). Data is presented as % of NMDA-induced current. DMSO is the solvent control.
On the technique in general: Patch clamp records ionic current or voltage across a cell membrane.

T2 sequence (Q9JKC1 24-597): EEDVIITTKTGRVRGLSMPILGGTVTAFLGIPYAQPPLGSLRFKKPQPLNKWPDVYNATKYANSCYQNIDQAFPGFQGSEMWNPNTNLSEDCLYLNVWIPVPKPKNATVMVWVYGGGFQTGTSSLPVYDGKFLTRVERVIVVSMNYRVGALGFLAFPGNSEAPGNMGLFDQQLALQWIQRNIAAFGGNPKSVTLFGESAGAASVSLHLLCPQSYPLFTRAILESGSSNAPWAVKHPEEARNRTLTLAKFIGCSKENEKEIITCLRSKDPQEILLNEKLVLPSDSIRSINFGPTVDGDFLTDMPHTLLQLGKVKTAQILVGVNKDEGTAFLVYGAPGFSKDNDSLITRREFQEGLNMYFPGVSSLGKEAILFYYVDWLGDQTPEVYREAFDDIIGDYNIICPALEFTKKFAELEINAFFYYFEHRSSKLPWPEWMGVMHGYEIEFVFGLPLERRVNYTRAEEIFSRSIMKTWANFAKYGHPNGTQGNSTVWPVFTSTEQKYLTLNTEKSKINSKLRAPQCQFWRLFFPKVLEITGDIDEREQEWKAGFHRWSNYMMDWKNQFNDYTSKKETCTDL

Turning to `O=c1ccc2c([nH]1)CCC(NCCCNc1c3c(nc4cc(Cl)ccc14)CCCC3)C2` (stereo not shown) [Compound A], the “scopolamine-induced performance deficits (escape latency)” value in assay [1] (0.2 and 0.4 mg/kg orally, scopolamine 0.1 mg/kg i.p., FIG. 4c) is listed as “significantly reversed scopolamine-induced performance deficits”. Also, in assay [1] (0.2 and 0.4 mg/kg, FIG. 4e, 4f), the spatial bias result is “spatial bias close to control levels”. Also, the “spatial bias (% of total distance swum in the training quadrant during spatial probe trial)” value in assay [1] was “significantly increased spatial bias”. Moreover, in assay [2], the “times more potent than bis(7)-tacrine” value was roughly 53, the “times more potent than tacrine” value was roughly 200, the “Selectivity AchE*” value was 227.23 and the IC50 was found to be 0.25 ± 0.05 nM. In addition, the IC50 in assay [3] came to 56.7 ± 25 nM. For the same compound, the NMDA-induced current entry on NMDA receptor was “decreased NMDA-induced current in hippocampal neurons”.

`O=c1ccc2c([nH]1)CCCC2NCCCCCCCNc1c2c(nc3cc(Cl)ccc13)CCCC2` (stereo not shown) [Compound B]: the escape latency result in assay [1] (0.1 mg/kg orally, scopolamine 0.1 mg/kg i.p., FIG. 4a) is on record as “reversed the increased escape latency induced by scopolamine”. Besides, the spatial bias entry in assay [1] (0.05 and 0.1 mg/kg p.o., FIG. 4d) is “spatial bias close to control levels”. The “spatial bias (% of total distance swum in the training quadrant during spatial probe trial)” value in assay [1] is “significantly increased spatial bias”. In assay [2], the “times more potent than bis(7)-tacrine” value is given as roughly 1885, the “times more potent than tacrine” value is on record as roughly 20471, the “Selectivity AchE*” value is reported as 4563 and 0.0068 ± 0.003 nM corresponded to half-maximal inhibition (IC50). Also, in assay [3], inhibition was half-maximal at 31.1 ± 1.96 nM (IC50). Moreover, the NMDA-induced current entry at NMDA receptor is “decreased NMDA-induced current in hippocampal neurons”.

`O=c1ccc2c([nH]1)CCCC2NCCCCCCCCNc1c2c(nc3cc(Cl)ccc13)CCCC2` (stereo not shown) [Compound C]: the “escape latency, compared with tacrine” value in assay [1] (0.2 mg/kg and 0.4 mg/kg vs 1.5 mg/kg tacrine (THA)) is “more effective that 1.5 mg/kg tacrine”. In assay [1] (0.4 mg/kg orally, scopolamine 0.1 mg/kg i.p., FIG. 4b), the escape latency result is “significantly reversed the increased escape latency induced by scopolamine”. Further, the spatial bias entry in assay [1] (0.2 and 0.4 mg/kg, FIG. 4e, 4f) is “spatial bias close to control levels”. In addition, in assay [1], the “spatial bias (% of total distance swum in the training quadrant during spatial probe trial)” value is “significantly increased spatial bias”. Moreover, in assay [2], the “times more potent than bis(7)-tacrine” value was roughly 1039, the “times more potent than tacrine” value is roughly 11000, the “Selectivity AchE*” value is 50317.32 and the IC50 came out at 0.0127 ± 0.002 nM. This compound returned an IC50 in assay [3] of 638 ± 122 nM. Moreover, the NMDA-induced current result on NMDA receptor is recorded as “decreased NMDA-induced current in hippocampal neurons”.
